# pIC50: −log10 of the molar value.
# Assay: Inhibition of RIPK3 in human HT-29 cells assessed as reduction in TSZ-induced necroptosis by Cell Titer Glo assay
compound,measurement,value
CC(=O)O[C@@H]1CCC(C)(C)[C@H]2C[C@@H](O)C3=C[C@@H](CCC(=O)[C@@]21C)[C@H](C)C3=O,pIC50,6.70

# Source: BindingDB's records for doi:10.1021/acs.jmedchem.9b01317 (Fudan University, 2020)
